Test results reported in patent US4489091A, “Antilipemic and anti-inflammatory compositions containing sulfonate derivatives” (Taiho Pharmaceutical Company Limited, priority 1980, dated 1984).
Where two headings read alike, the source gives them in different places.

Assays:
triglycerides = assay: Antilipemic effect: percent triglycerides inhibition in plasma of rats given an olive oil-cholesterol mixture; format: in vivo, male Wistar rats; conditions: plasma 2 hours after dosing, Wistar rat; for inhibition in vivo at 100 mg/kg: oral 100 mg/kg, read-out: Anti-lipemic effect, TG (percent triglycerides inhibition)
Description: (§1) The above compounds of this invention are tested by the following methods for antilipemic effect and acute toxicity. In the column of antilipemic effect in the table, the asterisked values indicate the effect achieved by orally giving 200 mg/kg of the compounds concerned, and the unmarked values, the effect attained by orally giving 100 mg/kg. In the same column, "TG" stands for percent triglycerides inhibition and "CS" percent cholesterol inhibition.
(§2) Seven-week-old male Wistar rats weighing 200 to 220 g are used, 5 rats in each group.
(§3) Each compound of the invention (100 mg or 200 mg) is dissolved in 10 ml of an olive oil-cholesterol mixture (containing 15% of cholesterol). The mixture containing the compound is orally given to the rat with a probe at a dose of 10 ml/kg. Two or 8 hours thereafter, 6 ml of whole blood is withdrawn from the descending aorta of the rat under ether anesthesia with a syringe containing heparin. The blood is centrifuged at 5° C. and 3000 r.p.m. to obtain the plasma. The plasma collected after the lapse of 2 hours is used for determining the triglycerides content, and the plasma obtained 8 hours later for determining the total cholesterol content, using a triglycerides measuring kit (trade mark "Triglycerides-B Test Wako," product of Wako Junyaku Co., Ltd., Japan) and a total cholesterol measuring kit (trade mark "Cholesterol Test Wako," product of the same), respectively. The olive oil-cholesterol mixture containing no compound is similarly given to a control group, while no treatment is conducted for a normal group. The triglycerides and total cholesterol contents in the plasma are also determined for these groups in the same manner as is the case with the test groups.
(§4) The present hyperlipidemia inhibition achieved by the present compound is given by [formula] in which A is the triglycerides (cholesterol) content of the control group, B is the triglycerides (cholesterol) content of the normal group, and C is the triglycerides (cholesterol) content of the group to which the present compound is given.

cholesterol = assay: Antilipemic effect: percent total cholesterol inhibition in plasma of rats given an olive oil-cholesterol mixture; format: in vivo, male Wistar rats; conditions: plasma 8 hours after dosing, Wistar rat; for inhibition in vivo at 100 mg/kg: oral 100 mg/kg, read-out: Anti-lipemic effect, CS (percent cholesterol inhibition)
Description: as §1, §2, §3, §4

Acute toxicity = conditions: rat, in vivo
Excerpt: Six-week-old male Wistar rats weighing 180 to 200 g are used, 5 rats in each group. Each compound of the invention is suspended in a 30% aqueous solution of polyethylene glycol 6000 and orally given to the rat at the dosage shown in Table 2. The animals are checked for poisoning, body weight and survival to determine the LD50 value.

[1] = oral, six-week-old male Wistar rats, suspended in 30% aqueous polyethylene glycol 6000, read-out: LD50

CCCCC(=O)COS(=O)(=O)c1c(C)cc(C)cc1C [Compound 74]
inhibition in vivo at 100 mg/kg (triglycerides): 77%
inhibition in vivo at 100 mg/kg (cholesterol): 87%
LD50 (Acute toxicity; po): > 3000 mg/kg

CCCCCC(=O)COS(=O)(=O)c1c(C)cc(C)cc1C [Compound 75]
inhibition in vivo at 100 mg/kg (triglycerides): 53%
inhibition in vivo at 100 mg/kg (cholesterol): 60%
LD50 (Acute toxicity; po): > 3000 mg/kg

CCCCCCC(=O)COS(=O)(=O)c1c(C)cc(C)cc1C [Compound 76]
inhibition in vivo at 100 mg/kg (triglycerides): 55%
inhibition in vivo at 100 mg/kg (cholesterol): 62%
LD50 (Acute toxicity; po): > 4000 mg/kg

CCCCCCCC(=O)COS(=O)(=O)c1c(C)cc(C)cc1C [Compound 77, 2-oxononanyl-2,4,6-trimethylbenzene sulfonate]
inhibition in vivo at 100 mg/kg (triglycerides): 80%
inhibition in vivo at 100 mg/kg (cholesterol): 74%
LD50 (Acute toxicity; [1]): > 4000 mg/kg

Cc1cc(C)c(S(=O)(=O)OCC(=O)CC(C)(C)C)c(C)c1 [Compound 82]
inhibition in vivo at 100 mg/kg (triglycerides): 56%
inhibition in vivo at 100 mg/kg (cholesterol): 66%
LD50 (Acute toxicity; po): > 3000 mg/kg

Cc1cc(C)c(S(=O)(=O)OCC(=O)CCC(C)C)c(C)c1 [Compound 83]
inhibition in vivo at 100 mg/kg (triglycerides): 68%
inhibition in vivo at 100 mg/kg (cholesterol): 71%
LD50 (Acute toxicity; po): > 3000 mg/kg

CCCC(=O)COS(=O)(=O)c1c(C)cc(C)c(C)c1C [Compound 95, 2-oxopentyl-2,3,4,6-tetramethylbenzene sulfonate]
inhibition in vivo at 100 mg/kg (triglycerides): 96%
inhibition in vivo at 100 mg/kg (cholesterol): 97%
LD50 (Acute toxicity; [1]): > 3000 mg/kg

CCCCCCC(=O)COS(=O)(=O)c1c(C)cc(C)c(C)c1C [Compound 97]
inhibition in vivo at 100 mg/kg (triglycerides): 55%
inhibition in vivo at 100 mg/kg (cholesterol): 47%
LD50 (Acute toxicity; po): > 3000 mg/kg

CCC(C)C(=O)COS(=O)(=O)c1c(C)cc(C)c(C)c1C (stereo not drawn) [Compound 99]
inhibition in vivo at 100 mg/kg (triglycerides): 72%
inhibition in vivo at 100 mg/kg (cholesterol): 78%
LD50 (Acute toxicity; po): > 3000 mg/kg

CCCCC(CC)C(=O)COS(=O)(=O)c1c(C)cc(C)c(C)c1C (stereo not drawn) [Compound 100]
inhibition in vivo at 200 mg/kg (triglycerides; oral 200 mg/kg (asterisked values), read-out: Anti-lipemic effect, TG (percent triglycerides inhibition), asterisked): 66%
Anti-lipemic effect, CS (percent cholesterol inhibition), asterisked (cholesterol; oral 200 mg/kg (asterisked values)): 42%
LD50 (Acute toxicity; po): > 4000 mg/kg

CCCC(=O)COS(=O)(=O)c1ccc(C)cc1C [Compound 112]
inhibition in vivo at 100 mg/kg (triglycerides): 80%
inhibition in vivo at 100 mg/kg (cholesterol): 62%
LD50 (Acute toxicity; po): > 2000 mg/kg

CCCC(=O)COS(=O)(=O)c1c(CC)cc(CC)cc1CC [Compound 114]
inhibition in vivo at 100 mg/kg (triglycerides): 87%
inhibition in vivo at 100 mg/kg (cholesterol): 76%
LD50 (Acute toxicity; po): > 3000 mg/kg

CCCC(=O)COS(=O)(=O)c1ccc(C)c(C)c1C [Compound 117]
inhibition in vivo at 100 mg/kg (triglycerides): 70%
inhibition in vivo at 100 mg/kg (cholesterol): 71%
LD50 (Acute toxicity; po): > 2000 mg/kg

CCC(CC)C(=O)COS(=O)(=O)c1ccc(C)cc1 [Compound 121]
inhibition in vivo at 100 mg/kg (triglycerides): 63%
inhibition in vivo at 100 mg/kg (cholesterol): 66%
LD50 (Acute toxicity; po): > 3000 mg/kg

CCCC(C)C(=O)COS(=O)(=O)c1ccc(C)cc1 (stereo not drawn) [Compound 122]
inhibition in vivo at 100 mg/kg (triglycerides): 65%
inhibition in vivo at 100 mg/kg (cholesterol): 51%
LD50 (Acute toxicity; po): > 3000 mg/kg

CCCC(CC)C(=O)COS(=O)(=O)c1ccc(C)cc1 (stereo not drawn) [Compound 123]
inhibition in vivo at 100 mg/kg (triglycerides): 67%
inhibition in vivo at 100 mg/kg (cholesterol): 60%
LD50 (Acute toxicity; po): > 3000 mg/kg

CCCC(CCC)C(=O)COS(=O)(=O)c1ccc(C)cc1 [Compound 124]
inhibition in vivo at 100 mg/kg (triglycerides): 62%
inhibition in vivo at 100 mg/kg (cholesterol): 42%
LD50 (Acute toxicity; po): > 3000 mg/kg

CCC(C)CC(=O)COS(=O)(=O)c1ccc(C)cc1 (stereo not drawn) [Compound 125]
inhibition in vivo at 100 mg/kg (triglycerides): 68%
inhibition in vivo at 100 mg/kg (cholesterol): 44%
LD50 (Acute toxicity; po): > 3000 mg/kg

Cc1ccc(S(=O)(=O)OCC(=O)CCC(C)C)cc1 [Compound 126]
inhibition in vivo at 100 mg/kg (triglycerides): 61%
inhibition in vivo at 100 mg/kg (cholesterol): 47%
LD50 (Acute toxicity; po): > 3000 mg/kg

CCCCC(C)C(=O)COS(=O)(=O)c1ccc(C)cc1 (stereo not drawn) [Compound 127]
inhibition in vivo at 100 mg/kg (triglycerides): 92%
inhibition in vivo at 100 mg/kg (cholesterol): 67%
LD50 (Acute toxicity; po): > 3000 mg/kg

CCCCC(CCC)C(=O)COS(=O)(=O)c1ccc(C)cc1 (stereo not drawn) [Compound 128]
inhibition in vivo at 100 mg/kg (triglycerides): 62%
inhibition in vivo at 100 mg/kg (cholesterol): 51%
LD50 (Acute toxicity; po): > 3000 mg/kg

CCOc1ccc(S(=O)(=O)OCC(=O)C(CC)CC)cc1 [Compound 131]
inhibition in vivo at 100 mg/kg (triglycerides): 110%
inhibition in vivo at 100 mg/kg (cholesterol): 97%
LD50 (Acute toxicity; po): > 2000 mg/kg

CCOc1ccc(S(=O)(=O)OCC(=O)CC(C)C)cc1 [Compound 132]
inhibition in vivo at 100 mg/kg (triglycerides): 87%
inhibition in vivo at 100 mg/kg (cholesterol): 90%
LD50 (Acute toxicity; po): > 2000 mg/kg
